Results on ten molecules are retold here after ChEMBL document CHEMBL2046274, “Pyrazolo[4,3-c][1,2]benzothiazines 5,5-dioxide: a promising new class of Staphylococcus aureus NorA efflux pump inhibitors” (J Med Chem, 2012).

Series [1] has as its target T1, Quinolone resistance protein NorA (Staphylococcus aureus) (UniProt P0A0J7).
T1 sequence (whole entry): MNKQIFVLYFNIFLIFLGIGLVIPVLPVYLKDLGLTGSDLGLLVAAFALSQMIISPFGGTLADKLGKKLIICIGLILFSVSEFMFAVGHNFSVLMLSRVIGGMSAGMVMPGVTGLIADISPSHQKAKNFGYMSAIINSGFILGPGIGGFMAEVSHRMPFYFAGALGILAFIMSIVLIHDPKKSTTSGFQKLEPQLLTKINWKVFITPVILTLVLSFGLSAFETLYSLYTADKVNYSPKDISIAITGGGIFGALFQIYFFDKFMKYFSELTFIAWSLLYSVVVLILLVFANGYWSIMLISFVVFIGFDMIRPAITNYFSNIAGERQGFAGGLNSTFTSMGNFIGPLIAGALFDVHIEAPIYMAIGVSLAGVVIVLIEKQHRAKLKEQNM
Nature of the series: Inhibition of norA-mediated EtBr efflux in Staphylococcus aureus SA1199B overexpressing norA and expressing A116E GrlA mutation at 50 uM by fluorometry.

The target of series [2] is Quinolone resistance protein NorA (Staphylococcus aureus, UniProt P0A0J7, A116E). The series is described as follows: Inhibition of norA-mediated EtBr efflux in Staphylococcus aureus SA1199B overexpressing norA and expressing A116E GrlA mutation by fluorometry.
Series [3] relates to Staphylococcus aureus. Nature of the series: Antibacterial activity against Staphylococcus aureus SA1199B overexpressing norA and expressing A116E GrlA mutation by microdilution method. It is filed as functional.
The subject of series [4] is Staphylococcus aureus. The series is described as follows: Antibacterial activity against wild type Staphylococcus aureus SA1199 expressing norA by microdilution method. The format is functional.
Series [5] concerns Staphylococcus aureus. The series is described as follows: Antibacterial activity against norA-deficient Staphylococcus aureus SAK1902 by microdilution method. It is filed as functional.
The subject of series [6] is Staphylococcus aureus. The series is described as follows: Antibacterial activity against Staphylococcus aureus SAK2378 overexpressing norA by microdilution method. It is filed as functional.
The target in series [7] is T1, Quinolone resistance protein NorA (Staphylococcus aureus). The series is described as follows: Inhibition of norA in wild type Staphylococcus aureus SA1199 expressing assessed as potentiation of ciprofloxacin MIC by checkerboard assay.
For series [8] the target is unchanged. Nature of the series: Inhibition of norA overexpressed in Staphylococcus aureus SA1199B coexpressing A116E GrlA mutation assessed as potentiation of ciprofloxacin MIC by checkerboard assay.
The target is the same in series [9]. The series is described as follows: Inhibition of norA in Staphylococcus aureus SA1199B overexpressing norA and expressing A116E GrlA mutation assessed as fold reduction in ciprofloxacin MIC at >6.25 ug/mL by checkerboard assay.
The target is the same in series [10]. The series is described as follows: Inhibition of norA overexpressed in Staphylococcus aureus SA1199B coexpressing A116E GrlA mutation assessed as fold reduction in ciprofloxacin MIC at >12.5 ug/mL by checkerboard assay.
Series [11] relates to Staphylococcus aureus. Nature of the series: Potentiation of CPX MIC against norA-deficient Staphylococcus aureus SAK1902 by checkerboard assay. The format is functional, organism-based.
Series [12] has as its target T1, Quinolone resistance protein NorA (Staphylococcus aureus). The series is described as follows: Inhibition of norA overexpressed in Staphylococcus aureus SAK2378 assessed as potentiation of CPX MIC by checkerboard assay.
Series [13] is described as follows: Cytotoxicity against human HepG2 cells after 24 hrs by LDH release assay. It is filed as cell-based.
Series [14] deals with T1, Quinolone resistance protein NorA (Staphylococcus aureus). Nature of the series: Inhibition of norA overexpressed in Staphylococcus aureus SA1199B coexpressing A116E GrlA mutation potentiation of EtBr MIC at >6.25 ug/mL by checkerboard assay.

Converted amounts (≈) assume the structure as drawn. The source made the active and inactive calls. The rule behind the calls is not given here. Bounds are passed on as bounds.

`O=[N+]([O-])c1ccc(-n2nc(-c3ccc(Cl)cc3)c3c2-c2ccccc2S(=O)(=O)N3)cc1` registered an inhibition in series [1] of 76.9%. This molecule also gave a half-inhibitory concentration (IC50) in series [2] of 10 µM. Further, the MIC came out at 50 µg/mL (≈ 110 µM) in [3], 50 µg/mL (≈ 110 µM) in series [4], 25 µg/mL (≈ 55.2 µM) in series [5] and 25 µg/mL (≈ 55.2 µM) in series [6]. For the same molecule, the inhibition result in series [7] is “inactive”. Also, the inhibition result in series [8] and in series [12] was “Active” throughout. Besides, the fold change (FC) came to 8 in series [9] and 16 in series [10]. Besides, in series [11], the result was Active. The same molecule came in with a CC50 at 24 h in [13] of over 100 µg/mL.

Molecule `CN1c2c(-c3ccc(Cl)cc3)nn(-c3cccc(C(F)(F)F)c3)c2-c2ccccc2S1(=O)=O` registered an inhibition in [1] of 0%.

In turn, `CS(=O)(=O)Nc1ccc(-n2nc(-c3ccc(Cl)cc3)c3c2-c2ccccc2S(=O)(=O)N3)cc1` gave an inhibition in [1] of 19.2%.

In turn, `NS(=O)(=O)c1ccc(-n2nc(-c3ccc(Cl)cc3)c3c2-c2ccccc2S(=O)(=O)N3)cc1` showed an inhibition in [1] of 29.8%.

In the case of `O=S1(=O)Nc2c(-c3ccc(Cl)cc3)nn(-c3ccc(F)cc3)c2-c2ccccc21`, in series [1], the inhibition turned out to be 15.5%.

For `O=S1(=O)Nc2c(-c3ccc(Cl)cc3)nn(-c3cccc(F)c3)c2-c2ccccc21`, in series [1], the inhibition came to 33.9%.

Turning to `Cc1ccc(-c2cc(C(F)(F)F)nn2-c2ccc(S(N)(=O)=O)cc2)cc1` [CELECOXIB], the inhibition in series [1] is 64.5%. Further, the IC50 in [2] is over 40 µM. In addition, the MIC in series [3] and in series [4] was over 100 µg/mL throughout. Further, the inhibition entry in [7] and in series [8] was “inactive” each time. For the same molecule, the inhibition entry in series [14] was “Active”.

Take `O=C(O)c1cn(C2CC2)c2cc(N3CCNCC3)c(F)cc2c1=O` [CIPROFLOXACIN]: the MIC in series [3] came to 10 µg/mL (≈ 30.2 µM); in series [4], 0.63 µg/mL (≈ 1.9 µM); in [5], 0.31 µg/mL (≈ 0.936 µM); in series [6], 2.5 µg/mL (≈ 7.54 µM).

Regarding `Fc1ccc([C@@H]2CCNC[C@H]2COc2ccc3c(c2)OCO3)cc1` [PAROXETINE], the MIC in series [3] was over 100 µg/mL; in series [4], over 100 µg/mL; in series [5], over 100 µg/mL; in series [6] it was 100 µg/mL (≈ 304 µM). Moreover, the inhibition result in [7] was “inactive”. The inhibition result in series [8] is “Active”.

Regarding `COC(=O)[C@H]1[C@H]2C[C@@H]3c4[nH]c5cc(OC)ccc5c4CCN3C[C@H]2C[C@@H](OC(=O)c2cc(OC)c(OC)c(OC)c2)[C@@H]1OC` [RESERPINE], the MIC in [3], in series [4], in series [5] and in series [6] was over 100 µg/mL in each case. Also, the inhibition result in [7] was “inactive”. Further, the inhibition entry in series [8] is “Active”.
